Assay results: patent US20020136733A1, “Malaria peptides” (priority 1994, published 2002)
Where two headings read alike, the source gives them in different places. Marks after values point to notes of the source that are not given here. Residues, ends and D or L forms follow the SMILES beside them.

Key:
[1] = biological target: T1, HLA-B7 (Homo sapiens, UniProt P01889); type: binding
T1 construct: expressed in transfected cells; host or cells: T2 cell line
Excerpt: (§1) We have recently described a novel approach to identifying CTL epitopes and potential CTL epitopes in P. falciparum^1. This consisted, in brief, of 1) determining a motif for peptides bound to a particular KLA class I molecules, 2) synthesizing peptides from P. falciparum antigens congruent with this motif, 3) testing whether these peptides bind to that HLA class I allele using a binding assay known as a HLA assembly assay, and 4) testing whether lymphocytes from individuals exposed to malaria could recognise these peptides as epitopes after suitable in vitro restimulation and culture. In that work we identified peptide epitopes and potential peptide epitopes for two HLA class I molecules, HLA-B53 and HLA-B35. Here we extend that work to four further HLA class I molecules: HLA-A2, HLA-B8, HLA-B7 and HLA-B17. 52 peptides are identified that are shown either to be epitopes or potential epitopes for these HLA class I molecules.
(§2) As described previously for identification of HLA-B35 and HLA-B53 epitopes^1, peptides were synthesised to correspond to these four motifs from the primary amino acid sequences of four P. falciparum pre-erythrocytic antigens: CSP, TRAP, LSA-1 and SHEBA. Over one hundred peptides were synthesized. Binding assays^7 were performed on selected peptides to determine whether they bound to HLA-A2, -B7, -B8, or -B58 using the untransfected T2 cell line (for HLA-A2) or the T2 cell line transfected with HLA-B7 (used to assess binding to HLA-B7s), or with HLA-B8 (used to assess binding to HLA-B8), or with HLA-B58 (used to assess binding to HLA-B58).

[2] = tested on: HLA-B8; experiment: HLA assembly assay, binding to HLA-B8 (T2 cell line transfected with HLA-B8); parameters: species or system human
Excerpt: as §1
(§3) As described previously for identification of HLA-B35 and HLA-B53 epitopes^1, peptides were synthesised to correspond to these four motifs from the primary amino acid sequences of four P. falciparum pre-erythrocytic antigens: CSP, TRAP, LSA-1 and SHEBA. Over one hundred peptides were synthesized. […]

[3] = tested on: HLA matched or autologous B cell line targets pre-pulsed with the peptide; experiment: CTL chromium release assay with restimulated lymphocytes from malaria-exposed Gambians; type: cell-based, human; conditions: for identified as an epitope for a secondary cytotoxic T lymphocyte response: asterisk beside the label in the table, HLA class I molecule
Experimental: Peptides shown to bind to a particular HLA class I allele were tested for CTL recognition in assays using lymphocytes from malaria-exposed Gambians, as described previously^1. A minority of peptides, synthesized to correspond to a peptides binding motif were not tested in the relevant assembly assay but tested only for CTL recognition. Cells from 82 adult Gambians and 53 Gambian children, all exposed to malaria, were used in the course of these studies. The children and adults were HLA typed using cellular or molecular techniques as described previously^1. Peptides were incubated with cells either singly, or in pools as described^1 at concentrations of 10-100 μM. Peptides could either be left with the cells for the duration of restimulation (as reported^1) or washed off after an hour. Cells were cultured for 1-3 weeks before a standard CTL chromium release assay^1 was performed using HLA matched or autologous B cell line targets pre-pulsed with the peptide to be tested. Peptides were tested either singly or in pools for CTL recognition.

[4] = biological target: T2, HLA-A2 (Homo sapiens, UniProt P04439, D140Y/D185E/D98H/E176V/E277Q/G131W/G231S/I119V/I121R/I166T/I218V/L300P/L318F/N151K/N90K/P208A/P217A/Q86G/Q94H/R138H/R169H/T345S); experiment: HLA assembly assay, binding to HLA-A2 (untransfected T2 cell line)
T2 construct: using the untransfected T2 cell line (for HLA-A2); endogenous in cells; host or cells: untransfected T2 cell line
Excerpt: as §1, §2

[5] = tested on: HLA-B17; experiment: HLA assembly assay, binding to HLA-B17 (T2 cell line transfected with HLA-B58); parameters: species or system human
Excerpt: as §1
The peptide binding motifs of HLA-A2, HLA-B7 and HLA-B8 have been described. For HLA-A2 strong preferences were found at positions 2 and 9 of bound peptides: for leucine, isoleucine and methionine at position 2, and for valine, leucine and isoleucine at position 9^3, 4 For HLA-B7 the preferred residues were proline at position 2 and a hydrophobic residue at position 9. Leucine, isoleucine, valine, alanine, phenylalanine and tryptophan were the hydrophobic residues preferred^5. For HLA-B8 preferred residues were found at positions 3, 5 and 9^6. At positions 3 and 5 lysine or arginine are preferred and at position 9, leucine or isoleucine or valine. The motif for peptides bound to HLA-B17 has not been reported so we determined this exactly as described for HLA-B35^1, using instead of the cell line CIR-B35, the cell line CIR-B58.
as §3

[6] = T2 cell line transfected with HLA-B7

T1 sequence (P61769 21-119): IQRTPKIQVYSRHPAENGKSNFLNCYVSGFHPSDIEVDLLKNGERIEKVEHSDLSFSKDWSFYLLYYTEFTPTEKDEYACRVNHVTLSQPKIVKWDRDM
T1 sequence (P01889 25-362): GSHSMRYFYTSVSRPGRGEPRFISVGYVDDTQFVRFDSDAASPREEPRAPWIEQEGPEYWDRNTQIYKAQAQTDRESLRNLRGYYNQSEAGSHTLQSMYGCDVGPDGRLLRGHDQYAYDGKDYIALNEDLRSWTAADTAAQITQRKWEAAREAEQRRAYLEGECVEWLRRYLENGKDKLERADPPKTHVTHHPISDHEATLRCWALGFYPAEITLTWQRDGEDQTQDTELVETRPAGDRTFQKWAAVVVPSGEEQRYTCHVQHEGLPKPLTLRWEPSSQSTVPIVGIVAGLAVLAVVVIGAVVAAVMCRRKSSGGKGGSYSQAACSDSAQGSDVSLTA

Compound: EPAPFDETL [tr15]
- binding to HLA-B7 in the HLA assembly assay [1, 6]: bind

Compound: LRKPKHKKL [cp43, circumsporozoite protein peptide, position 134, HLA-B8]
- binding to HLA-B8 in the HLA assembly assay [2]: bound
- CTL recognition / lysis of peptide-pulsed target cells ([3]; Gambian adults with HLA-B8 (Z42, Z130, Z80, Z169), 10% or greater specific lysis regarded as significant): HLA-B8-restricted CTL epitope

Compound: LLMDCSGSI [tr29, TRAP peptide, position 51, HLA-A2]
- binding to HLA-A2 in the HLA assembly assay [4]: bound

Compound: IPDSIQDSL [tr13]
- binding to HLA-B7 in the HLA assembly assay [1, 6]: bind

Compound: ILYISFYFI [ls10]
- binding to HLA-A2 in the HLA assembly assay [4]: bind

Compound: MPLETQLAI [sh6]
- binding to HLA-B7 in the HLA assembly assay [1]: bind

Compound: CC(C)C[C@H](NC(=O)[C@H](C)NC(=O)[C@H](CCCCN)NC(=O)[C@H](CCC(=O)O)NC(=O)[C@H](CCCCN)NC(=O)[C@H](CC(N)=O)NC(=O)[C@H](CCCCN)NC(=O)[C@H](CO)NC(=O)[C@H](C)N)C(=O)O [tr42, ASKNKEKAL] (H-ASKNKEKAL-OH; N-terminus and C-terminus assumed)
- identified as an epitope for a secondary cytotoxic T lymphocyte response [3]: tr42 *

Compound: CSCC[C@H](N)C(=O)N1CCC[C@H]1C(=O)N[C@@H](CC(N)=O)C(=O)N[C@@H](CC(N)=O)C(=O)N1CCC[C@H]1C(=O)N[C@@H](CC(N)=O)C(=O)N[C@@H](CCCNC(=N)N)C(=O)N[C@@H](CC(N)=O)C(=O)N[C@H](C(=O)O)C(C)C [cp6.2, MPNNPNRNV] (H-MPNNPNRNV-OH; N-terminus and C-terminus assumed)
- identified as an epitope for a secondary cytotoxic T lymphocyte response [3]: cp6.2 *

Compound: GPFMKAVCV [tr21]
- binding to HLA-B7 in the HLA assembly assay [1, 6]: bind

Compound: NPDPNANPNV [cp21]
- binding to HLA-B7 in the HLA assembly assay [1, 6]: bind

Compound: CC(C)C[C@H](NC(=O)[C@H](Cc1ccc(O)cc1)NC(=O)[C@H](CCCCN)NC(=O)[C@@H](NC(=O)[C@H](CC(N)=O)NC(=O)CNC(=O)[C@H](CC(C)C)NC(=O)[C@@H](N)Cc1c[nH]cn1)C(C)C)C(=O)N[C@H](C(=O)O)C(C)C [tr26, HLGNVKYLV] (H-HLGNVKYLV-OH; N-terminus and C-terminus assumed)
- identified as an epitope for a secondary cytotoxic T lymphocyte response [3]: tr26 *

Compound: CC[C@H](C)[C@H](NC(=O)[C@H](CCCCN)NC(=O)[C@H](CCC(N)=O)NC(=O)[C@H](CC(C)C)NC(=O)[C@@H](N)Cc1ccc(O)cc1)C(=O)N[C@@H](CCC(N)=O)C(=O)N[C@@H](CC(N)=O)C(=O)N[C@@H](CO)C(=O)N[C@@H](CC(C)C)C(=O)O [cp37, YLQKIQNSL] (H-YLQKIQNSL-OH; N-terminus and C-terminus assumed)
- identified as an epitope for a secondary cytotoxic T lymphocyte response [3]: cp37 *

Compound: CC[C@H](C)[C@H](NC(=O)[C@@H](NC(=O)[C@H](CC(C)C)NC(=O)[C@H](C)NC(=O)[C@H](CCCCN)NC(=O)[C@H](CCC(=O)O)NC(=O)[C@H](CCCCN)NC(=O)[C@H](CC(N)=O)NC(=O)[C@@H](N)CCCCN)[C@@H](C)CC)C(=O)O [tr43, KNKEKALII] (H-KNKEKALII-OH; N-terminus and C-terminus assumed)
- identified as an epitope for a secondary cytotoxic T lymphocyte response [3]: tr43 *

Compound: GSANKPKDEL [cp55, circumsporozoite protein peptide, position 364, HLA-B17]
- binding to HLA-B17 in the HLA assembly assay [5]: bind

Compound: YISFYFILV [ls11]
- binding to HLA-A2 in the HLA assembly assay [4]: bind

Compound: NPENPPNPDI [tr6, TRAP peptide, position 348, HLA-B7]
- binding to HLA-B7 in the HLA assembly assay [1, 6]: bind

Compound: CC[C@H](C)[C@H](NC(=O)CN)C(=O)N[C@@H](C)C(=O)NCC(=O)NCC(=O)N[C@@H](CC(C)C)C(=O)N[C@@H](C)C(=O)N[C@@H](CC(C)C)C(=O)N[C@@H](CC(C)C)C(=O)O [tr39, GIAGGLALL] (H-GIAGGLALL-OH; N-terminus and C-terminus assumed)
- identified as an epitope for a secondary cytotoxic T lymphocyte response [3]: tr39 *

Compound: CC[C@H](C)[C@H](NC(=O)[C@H](CCCCN)NC(=O)[C@H](CCC(N)=O)NC(=O)[C@H](CC(C)C)NC(=O)[C@@H](N)Cc1ccc(O)cc1)C(=O)N[C@@H](CCCCN)C(=O)N[C@@H](CC(N)=O)C(=O)N[C@@H](CO)C(=O)N[C@@H](CC(C)C)C(=O)O [cp38, YLQKIKNSL] (H-YLQKIKNSL-OH; N-terminus and C-terminus assumed)
- identified as an epitope for a secondary cytotoxic T lymphocyte response [3]: cp38 *

Compound: HIFDGDNEI [ls23, LSA-1 peptide, position 1883, HLA-A2]
- binding to HLA-A2 in the HLA assembly assay [4]: bind

Compound: CC[C@H](C)[C@H](NC(=O)[C@@H](NC(=O)[C@H](CCCCN)NC(=O)[C@H](CC(C)C)NC(=O)[C@@H](N)Cc1ccc(O)cc1)[C@@H](C)O)C(=O)N[C@@H](CCC(N)=O)C(=O)N[C@@H](CC(N)=O)C(=O)N[C@@H](CO)C(=O)N[C@@H](CC(C)C)C(=O)O [cp36, YLKTIQNSL] (H-YLKTIQNSL-OH; N-terminus and C-terminus assumed)
- identified as an epitope for a secondary cytotoxic T lymphocyte response [3]: cp36 *

Compound: CSSVFNVV [cp56, circumsporozoite protein peptide, position 388, HLA-B17]
- binding to HLA-B17 in the HLA assembly assay [5]: bind

Compound: IPSLALMLI [sh1, SHEBA peptide, position 7, HLA-B7]
- binding to HLA-B7 in the HLA assembly assay [1, 6]: bind

Compound: LSVSSFLFV [cp48, circumsporozoite protein peptide, position 8, HLA-B17]
- binding to HLA-B17 in the HLA assembly assay [5]: bind

Compound: KPIVQYDNF [ls6, LSA-1 peptide, position 1786, HLA-B7]
- binding to HLA-B7 in the HLA assembly assay [1, 6]: bind

Compound: GIYKELEDL [ls19, LSA-1 peptide, position 1801, HLA-A2]
- binding to HLA-A2 in the HLA assembly assay [4]: bind

Compound: CSCC[C@H](N)C(=O)N1CCC[C@H]1C(=O)N[C@@H](CC(N)=O)C(=O)N[C@@H](Cc1ccc(O)cc1)C(=O)N1CCC[C@H]1C(=O)N[C@@H](CC(N)=O)C(=O)N[C@@H](CCCNC(=N)N)C(=O)N[C@@H](CC(N)=O)C(=O)N[C@H](C(=O)O)C(C)C [cp6.1, MPNYPNRNV] (H-MPNYPNRNV-OH; N-terminus and C-terminus assumed)
- identified as an epitope for a secondary cytotoxic T lymphocyte response [3]: cp6.1 *
